From patent US9493461B2, “Tetracyclic heterocycle compounds and methods of use thereof for the treatment of hepatitis C” (priority 2013, dated 2016)
Read-outs that look alike come from different tables or passages of the source.

Assays:
HCV replicon genotype 1a = experiment: HCV replicon assay, genotype 1a (cell ELISA for replicon-encoded NS3/4A); format: cell-based, hepatitis C virus (HCV)
In short: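 Stable G418-selected neomycin-resistant HCV replicon cells were plated with serially diluted compound without G418 and incubated 96 h. After washing and lysis, replicon RNA was measured indirectly by cell ELISA for replicon-encoded NS3/4A; IC50 from four-parameter fit relative to DMSO control.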

HCV replicon genotype 1b = experiment: HCV replicon assay, genotype 1b (cell ELISA for replicon-encoded NS3/4A); format: cell-based, hepatitis C virus (HCV)
In short: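 Genotype 1b replicon cells (neomycin-selected, G418 removed for assay) incubated 96 h with compound dilution series. Replication measured by cell ELISA for replicon-encoded NS3/4A after lysis; IC50 from four-parameter fit relative to DMSO control.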

[1] = Hepatitis C virus, 96 h, read-out: 1a IC50 (nM), genotype 1a replicon cells, 96 hours incubation, NS3/4A ELISA readout, % of DMSO control
[2] = Hepatitis C virus, 96 h, read-out: 1b IC50 (nM), genotype 1b replicon cells, 96 hours incubation, NS3/4A ELISA readout, % of DMSO control

| SMILES | IC50 (HCV replicon genotype 1a; [1]) [nM] | IC50 (HCV replicon genotype 1b; [2]) [nM] | IC50 (HCV replicon genotype 1a; read-out: 1a IC50, genotype 1a replicon cells, 96 hours incubation, NS3/4A ELISA readout, % of DMSO control) [nM] | IC50 (HCV replicon genotype 1b; read-out: 1b IC50, genotype 1b replicon cells, 96 hours incubation, NS3/4A ELISA readout, % of DMSO control) [nM] |
| --- | --- | --- | --- | --- |
| CNC(=O)c1c(-c2ccc(F)cc2F)oc2cc(N(C)S(C)(=O)=O)c(-c3cc4c(cn3)ncn3c5cccc(F)c5cc43)cc12 [Example 75] | 1.03 | 2.78 | – | – |
| CNC(=O)c1c(-c2ccc(F)cc2)oc2cc(N(C)S(C)(=O)=O)c(-c3ccc4nc(CN5CC(OC)C5)n5c6cccc(C#N)c6cc5c4n3)cc12 [Example 125] | 2.32 | 3.21 | – | – |
| CNC(=O)c1c(-c2ccc(F)cc2)oc2cc(N(C)S(C)(=O)=O)c(-c3ccc4nc(CN5CCOCC5)n5c6cccc(C#N)c6cc5c4n3)cc12 [Example 134] | 2.6 | 2.02 | – | – |
| CNC(=O)c1c2cc(-c3ccc4ncn5c6cccc(F)c6cc5c4n3)c(N(C)S(C)(=O)=O)cc2nn1-c1ccc(F)cc1 [Example 15, 2-(4-fluorophenyl)-5-(11-fluoropyrido[3′,2′:4,5]pyrimido[1,6-a]indol-2-yl)-N-methyl-6-(N-methylmethylsulfonamido)-2H-indazole-3-carboxamide] | 3.04 | 5.27 | – | – |
| CNC(=O)c1c(-n2ccc(C)cc2=O)oc2cc(N(C)S(C)(=O)=O)c(-c3ccc4nc(CN5CC(C)(C#N)C5)n5c6cccc(F)c6cc5c4n3)cc12 [Example 36] | 2.49 | 3.21 | – | – |
| CNC(=O)c1c(-c2ccc(F)cc2)oc2cc(N(C)S(C)(=O)=O)c(-c3ccc4nc(CN5CCN(C(C)=O)CC5)n5c6cccc(F)c6cc5c4n3)cc12 [Example 105] | 2.6 | 3.79 | – | – |
| CNC(=O)c1c(-c2ccc(F)cc2)oc2cc(N(C)S(C)(=O)=O)c(-c3ccc4nc(C(=O)OC)n5c6cccc(F)c6cc5c4n3)cc12 [Example 62, methyl 11-fluoro-2-(2-(4-fluorophenyl)-3-(methylcarbamoyl)-6-(N-methylmethylsulfonamido)benzofuran-5-yl)pyrido[3′,2′:4,5]pyrimido[1,6-a]indole-6-carboxylate] | 8.67 | 12.2 | – | – |
| CNC(=O)c1c(-c2ccc(F)cc2F)oc2cc(N(C)S(C)(=O)=O)c(-c3ccc4nc(CC5CC6(CNC(=O)C6)C5)n5c6cccc(F)c6cc5c4n3)cc12 (centres unmarked) [Example 137] | 6.67 | 5.04 | – | – |
| CNC(=O)c1c(-c2ccc(F)cc2)oc2cc(N(C)S(C)(=O)=O)c(-c3ccc4nc(CN5CC(C)C5)n5c6cccc(F)c6cc5c4n3)cc12 [Example 103] | 2.05 | 5.27 | – | – |
| CNC(=O)c1c(-c2ccc(F)cc2)oc2cc(N(C)S(C)(=O)=O)c(-c3ccc4ncn5c6ccc(F)cc6cc5c4n3)cc12 [Example 20, 2-(4-fluorophenyl)-5-(10-fluoropyrido[3′,2′:4,5]pyrimido[1,6-a]indol-2-yl)-N-methyl-6-(N-methylmethylsulfonamido)benzofuran-3-carboxamide] | 1.59 | 3.33 | – | – |
| CNC(=O)c1c(-c2ccc(OC)nc2)oc2cc(N(C)S(C)(=O)=O)c(-c3ccc4nc(CN5CC(F)C5)n5c6cccc(F)c6cc5c4n3)cc12 [Example 34] | 2.43 | 4.66 | – | – |
| CNC(=O)c1c(-c2ccc(F)cc2)oc2cc(N(C)S(C)(=O)=O)c(-c3ccc4ncn5c6ccccc6cc5c4c3)cc12 [Example 41, 2-(4-fluorophenyl)-5-(indolo[1,2-c]quinazolin-2-yl)-N-methyl-6-(N-methylmethylsulfonamido)benzofuran-3-carboxamide] | 2.09 | 2.57 | – | – |
| CNC(=O)c1c(-c2ccc(F)cc2)oc2cc(N(C)S(C)(=O)=O)c(-c3ccc4nc(CN5CC(C)(C#N)C5)n5c6cccc(F)c6cc5c4n3)cc12 [Example 89] | 3.41 | 3.45 | – | – |
| CNC(=O)c1c(-c2ccc(C)nc2)oc2cc(N(C)S(C)(=O)=O)c(-c3ccc4ncn5c6cccc(F)c6cc5c4n3)cc12 [Example 5] | 3.7 | 7.4 | – | – |
| CNC(=O)c1c(-c2ccc(F)cc2)oc2cc(N(C)S(C)(=O)=O)c(-c3ccc4nc(CN5CCN6C(=O)OCC6C5)n5c6cccc(F)c6cc5c4n3)cc12 (centres unmarked) [Example 98] | 4.79 | 4.16 | – | – |
| CNC(=O)c1c(-c2ccc(F)cc2)oc2cc(N(C)S(C)(=O)=O)c(-c3ccc4nc(CN5CC(C)(O)C5)n5c6cccc(F)c6cc5c4n3)cc12 [Example 78] | 2.8 | 3.34 | – | – |
| CNC(=O)c1c(-c2ccc(F)cc2)oc2cc(N(C)S(C)(=O)=O)c(-c3ccc4nc(CN5CC[C@H](OC)C5)n5c6cccc(F)c6cc5c4n3)cc12 [Example 91] | 3.58 | 6.54 | – | – |

| SMILES | IC50 (HCV replicon genotype 1a; [1]) [nM] | IC50 (HCV replicon genotype 1b; [2]) [nM] | IC50 (HCV replicon genotype 1a; read-out: 1a IC50, genotype 1a replicon cells, 96 hours incubation, NS3/4A ELISA readout, % of DMSO control) [nM] | IC50 (HCV replicon genotype 1b; read-out: 1b IC50, genotype 1b replicon cells, 96 hours incubation, NS3/4A ELISA readout, % of DMSO control) [nM] |
| --- | --- | --- | --- | --- |
| CNC(=O)c1c(-c2ccc(F)cc2)oc2cc(N(C)S(C)(=O)=O)c(-c3ccc4nc(CN5CC[C@@H](F)C5)n5c6cccc(C#N)c6cc5c4n3)cc12 [Example 135] | – | – | 2.71 | 3.66 |
| CNC(=O)c1c(-c2ccc(F)cc2)oc2cc(N(C)S(C)(=O)=O)c(-c3ccc4c(n3)-c3cc5c(F)cccc5n3C(C)(C)N4)cc12 [Example 66, 5-(11-fluoro-6,6-dimethyl-5,6-dihydropyrido[3′,2′:4,5]pyrimido[1,6-a]indol-2-yl)-2-(4-fluorophenyl)-N-methyl-6-(N-methylmethylsulfonamido)benzofuran-3-carboxamide] | 5.96 | 9.23 | – | – |
| CNC(=O)c1c(-c2ccc(C(F)(F)F)nc2)oc2cc(N(C)S(C)(=O)=O)c(-c3ccc4ncn5c6cccc(F)c6cc5c4n3)cc12 [Example 1, 5-(11-fluoropyrido[3′,2′:4,5]pyrimido[1,6-a]indol-2-yl)-N-methyl-6-(N-methylmethylsulfonamido)-2-(6-(trifluoromethyl)pyridin-3-yl)benzofuran-3-carboxamide] | 6.56 | 4.01 | – | – |
| CNC(=O)c1c(-c2ccc(F)nc2)oc2cc(N(C)S(C)(=O)=O)c(-c3ccc4nc(CN5CC(F)C5)n5c6cccc(F)c6cc5c4n3)cc12 [Example 31] | 2.95 | 4.69 | – | – |
| CNC(=O)c1c(-c2ccc(F)cc2)oc2cc(N(C)S(C)(=O)=O)c(-c3ccc4nc(CN5CC[C@@H](OC)C5)n5c6cccc(F)c6cc5c4n3)cc12 [Example 100] | 2.6 | 4.46 | – | – |
| CNC(=O)c1c(-c2ccc(F)cc2)oc2nc(N(C)S(C)(=O)=O)c(-c3ccc4ncn5c6cccc(F)c6cc5c4n3)cc12 [Example 14, 2-(4-fluorophenyl)-5-(11-fluoropyrido[3′,2′:4,5]pyrimido[1,6-a]indol-2-yl)-N-methyl-6-(N-methylmethylsulfonamido)furo[2,3-b]pyridine-3-carboxamide] | 1.75 | 3.72 | – | – |
| CNC(=O)c1c(-c2ccc(OC(F)F)nc2)oc2cc(N(C)S(C)(=O)=O)c(-c3ccc4ncn5c6cccc(F)c6cc5c4n3)cc12 [Example 2] | 2.83 | 6.91 | – | – |
| CNC(=O)c1c(-c2ccc(F)cc2F)oc2cc(N(C)S(C)(=O)=O)c(-c3ccc4nc(CN5CCC[C@@H]5C(F)(F)F)n5c6cccc(F)c6cc5c4n3)cc12 [Example 144] | 13.3 | 14.6 | – | – |
| CNC(=O)c1c(-c2ccc(F)cc2)oc2cc(N(C)S(C)(=O)=O)c(-c3ccc4c(n3)-c3cc5c(F)cccc5n3C(CCO)N4)cc12 (centres unmarked) [Example 65, 5-(11-fluoro-6-(2-hydroxyethyl)-5,6-dihydropyrido[3′,2′:4,5]pyrimido[1,6-a]indol-2-yl)-2-(4-fluorophenyl)-N-methyl-6-(N-methylmethylsulfonamido)benzofuran-3-carboxamide] | 2.52 | 2.42 | – | – |
| CNC(=O)c1c(-n2ccccc2=O)oc2cc(N(C)S(C)(=O)=O)c(-c3ccc4ncn5c6cccc(F)c6cc5c4n3)cc12 [Example 11, 5-(11-fluoropyrido[3′,2′:4,5]pyrimido[1,6-a]indol-2-yl)-N-methyl-6-(N-methylmethylsulfonamido)-2-(2-oxopyridin-1(2H)-yl)benzofuran-3-carboxamide] | 2.03 | 2.26 | – | – |
| CNC(=O)c1c(-c2ccc(F)cc2F)oc2cc(N(C)S(C)(=O)=O)c(-c3ccc4c(n3)-c3cc5c(F)cccc5n3CN4)cc12 [Example 58] | 1.68 | 2.76 | – | – |
| CNC(=O)c1c(-c2ccc(F)cc2F)oc2cc(N(C)S(C)(=O)=O)c(-c3ccc4nc(CN5CC(C)(OC)C5)n5c6cccc(F)c6cc5c4n3)cc12 [Example 138] | 4.33 | 4.59 | – | – |
| CNC(=O)c1c(-c2ccc(F)cc2)oc2cc(N(C)S(C)(=O)=O)c(-c3ccc4nc(CN5CC6(CCOCC6)C5)n5c6cccc(C#N)c6cc5c4n3)cc12 [Example 127] | 1.5 | 2.57 | – | – |
| CNC(=O)c1c(-c2ccc(F)cc2)oc2cc(N(C)S(C)(=O)=O)c(-c3ccc4c(n3)-c3cc5c(F)cccc5n3C(CO)N4)cc12 (centres unmarked) [Example 64, 5-(11-fluoro-6-(hydroxymethyl)-5,6-dihydropyrido[3′,2′:4,5]pyrimido[1,6-a]indol-2-yl)-2-(4-fluorophenyl)-N-methyl-6-(N-methylmethylsulfonamido)benzofuran-3-carboxamide] | 11.8 | 11.8 | – | – |
| CNC(=O)c1c(-c2ccc(F)cc2F)oc2cc(N(C)S(C)(=O)=O)c(-c3ccc4nc(CN5CCN(C)CC5)n5c6cccc(F)c6cc5c4n3)cc12 [Example 147] | 3.48 | 3.99 | – | – |
| CNC(=O)c1c(-c2ccc(F)cc2)oc2cc(N(C)S(C)(=O)=O)c(-c3ccc4[nH]c(=O)n5c6cccc(F)c6cc5c4n3)cc12 [Example 22] | 4.34 | 3.42 | – | – |
| CNC(=O)c1c(-c2ccc(F)cc2F)oc2cc(N(C)S(C)(=O)=O)c(-c3ccc4nc(CN5CC(C)(C#N)C5)n5c6cccc(F)c6cc5c4n3)cc12 [Example 139] | 2.79 | 3.16 | – | – |
